Measured values reported in paper PMC6478823, “A suite of phenotypic assays to ensure pipeline diversity when prioritizing drug-like Cryptosporidium growth inhibitors” (Nature Communications, 2019).

Experiments:
[1] = tested on: purified N-WASp; parameters: method as in PMID 15235593; settings: at 10 µM; cited from earlier work
[2] = tested on: Cryptosporidium; parameters: method as in earlier work; settings: ref Castellanos-Gonzalez, et al. 2013. JID. and Love, et al. 2017. PLoS NTD.; cited from earlier work
[3] = tested on: C. parvum; assay: Time-lapse microscopy of live C. parvum egress; settings: 2 × EC90 (1.3 µM total)
Experimental: Cells were then imaged live with 5 min intervals using Nomarski optics and a ×60 oil objective (1.4 NA). […] After 3 h, cells were gently washed with warm complete media to remove oocyst shells before adding either compound or DMSO. Tiled 2 × 2 images were taken live at 20 min intervals using a ×40 dry objective (0.7 NA).

[4] = tested on: C. parvum; assay: Time course infection experiment (PV numbers versus time)
Experimental: For quantification of parasitophorous vacuoles over time, HCT-8 cells were grown to greater than 90% confluence in 384-well plates and infected with 11,000 oocysts after triggering excystation.

[5] = tested on: cryptosporidiosis; parameters: method as in PMID 19954529; settings: versus approximately one-quarter of untreated children; cited from earlier work
[6] = tested on: Cryptosporidium; parameters: method as in Downey, et al. 2008. AAC.; settings: ref Downey, et al. 2008. AAC.; cited from earlier work

Structure (SMILES): CN(C)C[C@H](O)Cn1c2ccc(Br)cc2c2cc(Br)ccc21 (racemic) [Wiskostatin]
- inhibition of purified N-WASp [1]: inhibit purified N-WASp

Structure (SMILES): CCOc1ccc2cc(-c3nn(CC4CCN(C)CC4)c4ncnc(N)c34)ccc2c1 [BKI-1294]
- anticryptosporidial activity in SCID beige mice [2]: previously demonstrated anticryptosporidial activity

Structure (SMILES): Cc1cccc(-n2ncc3c(O)nc(-n4nc(C)cc4NC(=O)c4cc5ccccc5o4)nc32)c1 [C-1]
- parasite egress during live microscopy [3]: inhibited parasite egress
- Parasites Detected, Average ([4]; C1 at 2*EC90, 6 h post-infection): 1992
- Parasites Detected, Average ([4]; C1 at 2*EC90, 9.5 h post-infection): 2503
- Parasites Detected, Average ([4]; C1 at 2*EC90, 12 h post-infection): 1773
- Parasites Detected, Average ([4]; C1 at 2*EC90, 13.5 h post-infection): 1847
- Parasites Detected, Average ([4]; C1 at 2*EC90, 15 h post-infection): 879
- Parasites Detected, Average ([4]; C1 at 2*EC90, 18 h post-infection): 1045
- Parasites Detected, Average ([4]; C1 at 2*EC90, 19.5 h post-infection): 1400
- Parasites Detected, Average ([4]; C1 at 2*EC90, 22.5 h post-infection): 945
- Parasites Detected, Average ([4]; C1 at EC90, 6 h post-infection): 2336
- Parasites Detected, Average ([4]; C1 at EC90, 9.5 h post-infection): 2363
- Parasites Detected, Average ([4]; C1 at EC90, 12 h post-infection): 2052
- Parasites Detected, Average ([4]; C1 at EC90, 13.5 h post-infection): 2149
- Parasites Detected, Average ([4]; C1 at EC90, 15 h post-infection): 1056
- Parasites Detected, Average ([4]; C1 at EC90, 18 h post-infection): 1258
- Parasites Detected, Average ([4]; C1 at EC90, 19.5 h post-infection): 2054
- Parasites Detected, Average ([4]; C1 at EC90, 22.5 h post-infection): 2003

Structure (SMILES): CC(=O)Oc1ccccc1C(=O)Nc1ncc([N+](=O)[O-])s1 [Nitazoxanide]
- improvement after 1 week of treatment in young children [5]: just over half of children studied

Structure (SMILES): Cc1cc(/C=C/c2ccc3cc(N(C)C)ccc3[n+]2C)c(C)n1-c1ccccc1 [Pyrvinium pamoate]
- anticryptosporidial activity in neonatal mouse model [6]: previously demonstrated anticryptosporidial activity
